Measurements from PubChem BioAssay AID1963970 (Molecular Pharmacology Branch, DTP, NCI, 2024).
“And” between values parts separate entries of the source, which are not always exact repeats. Equal entries are not always repeated.

Tested on: 931267-113-T-J1-PDC multicell spheroid viability
Assay: Anticancer human tumor 931267-113-T-J1-PDC patient-derived colon adenocarcinoma cell line growth inhibition [PI3K]
Conditions: for viability, T/C: stronger effect = lower value
Method in brief: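 Spheroid viability read-out. Co-cultures contained the tumor line plus HUVEC and human MSCs. Each agent was paired with a PI3K inhibitor (inavolisib, alpelisib, duvelisib, copanlisib) across half-log dilutions starting at clinical Cmax, or at 10 microM when Cmax was unknown.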

[1] = curve of first compound, second compound 0.0316 µM
[2] = curve of first compound, second compound 0.1 µM
[3] = curve of first compound, second compound 0.316 µM
[4] = curve of first compound, second compound 1 µM
[5] = curve of first compound, second compound 3.16 µM
[6] = curve of first compound, second compound 10 µM
[7] = second compound 0.0316 µM, first compound 0.0316 µM
[8] = second compound 0.0316 µM, first compound 0.1 µM
[9] = second compound 0.0316 µM, first compound 0.316 µM
[10] = second compound 0.0316 µM, first compound 1 µM
[11] = second compound 0.0316 µM, first compound 3.16 µM
[12] = second compound 0.0316 µM, first compound 10 µM
[13] = second compound 0.1 µM, first compound 0.0316 µM
[14] = second compound 0.1 µM, first compound 0.1 µM
[15] = second compound 0.1 µM, first compound 0.316 µM
[16] = second compound 0.1 µM, first compound 1 µM
[17] = second compound 0.1 µM, first compound 3.16 µM
[18] = second compound 0.1 µM, first compound 10 µM
[19] = second compound 0.316 µM, first compound 0.0316 µM
[20] = second compound 0.316 µM, first compound 0.1 µM
[21] = second compound 0.316 µM, first compound 0.316 µM
[22] = second compound 0.316 µM, first compound 1 µM
[23] = second compound 0.316 µM, first compound 3.16 µM
[24] = second compound 0.316 µM, first compound 10 µM
[25] = second compound 1 µM, first compound 0.0316 µM
[26] = second compound 1 µM, first compound 0.1 µM
[27] = second compound 1 µM, first compound 0.316 µM
[28] = second compound 1 µM, first compound 1 µM
[29] = second compound 1 µM, first compound 3.16 µM
[30] = second compound 1 µM, first compound 10 µM
[31] = second compound 3.16 µM, first compound 0.0316 µM
[32] = second compound 3.16 µM, first compound 0.1 µM
[33] = second compound 3.16 µM, first compound 0.316 µM
[34] = second compound 3.16 µM, first compound 1 µM
[35] = second compound 3.16 µM, first compound 3.16 µM
[36] = second compound 3.16 µM, first compound 10 µM
[37] = second compound 10 µM, first compound 0.0316 µM
[38] = second compound 10 µM, first compound 0.1 µM
[39] = second compound 10 µM, first compound 0.316 µM
[40] = second compound 10 µM, first compound 1 µM
[41] = second compound 10 µM, first compound 3.16 µM
[42] = second compound 10 µM, first compound 10 µM
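Also: viability read 7 days after compound addition.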

## Cn1ncc(Cl)c1-c1cc(C(=O)NC(CN)Cc2cccc(F)c2)sc1Cl (stereo not given) + CC(Nc1ncnc2nc[nH]c12)c1cc2cccc(Cl)c2c(=O)n1-c1ccccc1
[1]
  IC50: 6.98 µM
[2]
  IC50: 8.83 µM
[3]
  IC50: 6.77 µM
[4]
  IC50: 8.02 µM
[5]
  IC50: 6.2 µM
[6]
  IC50: 6 µM
[7]
  viability, T/C: 100%
[8]
  viability, T/C: 105%
[9]
  viability, T/C: 101%
[10]
  viability, T/C: 86%
[11]
  viability, T/C: 85.7%
[12]
  viability, T/C: 35.1%
[13]
  viability, T/C: 106%
[14]
  viability, T/C: 119%
[15]
  viability, T/C: 96%
[16]
  viability, T/C: 91.4%
[17]
  viability, T/C: 86.8%
[18]
  viability, T/C: 44.5%
[19]
  viability, T/C: 114%
[20]
  viability, T/C: 109%
[21]
  viability, T/C: 99.3%
[22]
  viability, T/C: 94.5%
[23]
  viability, T/C: 79%
[24]
  viability, T/C: 35.7%
[25]
  viability, T/C: 107%
[26]
  viability, T/C: 110%
[27]
  viability, T/C: 92.5%
[28]
  viability, T/C: 91.2%
[29]
  viability, T/C: 80.6%
[30]
  viability, T/C: 42.4%
[31]
  viability, T/C: 99.7%
[32]
  viability, T/C: 97.3%
[33]
  viability, T/C: 97.8%
[34]
  viability, T/C: 86.9%
[35]
  viability, T/C: 74.5%
[36]
  viability, T/C: 33.4%
[37]
  viability, T/C: 92.9%
[38]
  viability, T/C: 89.3%
[39]
  viability, T/C: 90.2%
[40]
  viability, T/C: 87.3%
[41]
  viability, T/C: 67.3%
[42]
  viability, T/C: 36.1%

## C#Cc1c(F)ccc2cc(O)cc(-c3ncc4c(N5CC6CCC(C5)N6)nc(OCC56CCCN5CC(F)C6)nc4c3F)c12 (stereo not given) + CC(Nc1ccc2c(c1)OCCn1cc(N3C(=O)OCC3C(F)F)nc1-2)C(N)=O
Curve of first compound, second compound 0.00316 µM
  IC50: 0.531 µM
Curve of first compound, second compound 0.01 µM
  IC50: 0.419 µM
[1]
  IC50: 0.364 µM
[2]
  IC50: 0.219 µM
[3]
  IC50: 0.179 µM
[4]
  IC50: 0.0558 µM
Second compound 0.00316 µM, first compound 0.0316 µM
  viability, T/C: 76.7%
Second compound 0.00316 µM, first compound 0.1 µM
  viability, T/C: 76.6%
Second compound 0.00316 µM, first compound 0.316 µM
  viability, T/C: 49%
Second compound 0.00316 µM, first compound 1 µM
  viability, T/C: 45.8%
Second compound 0.00316 µM, first compound 3.16 µM
  viability, T/C: 33.9%
Second compound 0.00316 µM, first compound 10 µM
  viability, T/C: 26%
Second compound 0.01 µM, first compound 0.0316 µM
  viability, T/C: 79%
Second compound 0.01 µM, first compound 0.1 µM
  viability, T/C: 65.4%
Second compound 0.01 µM, first compound 0.316 µM
  viability, T/C: 52.9%
Second compound 0.01 µM, first compound 1 µM
  viability, T/C: 41.8%
Second compound 0.01 µM, first compound 3.16 µM
  viability, T/C: 31.3%
Second compound 0.01 µM, first compound 10 µM
  viability, T/C: 24.8%
[7]
  viability, T/C: 83.5%
[8]
  viability, T/C: 65.3%
[9]
  viability, T/C: 53.4%
[10]
  viability, T/C: 36.6%
[11]
  viability, T/C: 29.1%
[12]
  viability, T/C: 18.8%
[13]
  viability, T/C: 82.4%
[14]
  viability, T/C: 63.3%
[15]
  viability, T/C: 43.7%
[16]
  viability, T/C: 29.4%
[17]
  viability, T/C: 22.9%
[18]
  viability, T/C: 17%
[19]
  viability, T/C: 72.3%
[20]
  viability, T/C: 56.4%
[21]
  viability, T/C: 45%
[22]
  viability, T/C: 25.1%
[23]
  viability, T/C: 19.8%
[24]
  viability, T/C: 13.3%
[25]
  viability, T/C: 57.5%
[26]
  viability, T/C: 43.9%
[27]
  viability, T/C: 26%
[28]
  viability, T/C: 23.6%
[29]
  viability, T/C: 14.7%
[30]
  viability, T/C: 10.8%

## CC(C)n1nc(-c2ccc3oc(N)nc3c2)c2c(N)ncnc21
Compound 0.000316 µM
  viability, T/C: 101% [middle of 4 runs]
Compound 0.001 µM
  viability, T/C: 88.2% and 95% (2×) and 92.1%
Compound 0.00316 µM
  viability, T/C: 96.8% [middle of 4 runs]
Compound 0.01 µM
  viability, T/C: 96.1% [middle of 4 runs]
Compound 0.0316 µM
  viability, T/C: 81.6% [middle of 4 runs]
Compound 0.1 µM
  viability, T/C: 52.2% [middle of 4 runs]
Curve of compound
  IC50: 0.0848 µM and 0.0924 µM and > 0.1 µM

## C[C@@H](NC(=O)c1ncnc(N)c1Cl)c1ncc(C(=O)Nc2cc(C(F)(F)F)c(Cl)cn2)s1
Compound 0.0316 µM
  viability, T/C: 117% [middle of 4 runs]
Compound 0.1 µM
  viability, T/C: 112% [middle of 4 runs]
Compound 0.316 µM
  viability, T/C: 111% [middle of 4 runs]
Compound 1 µM
  viability, T/C: 114% [middle of 4 runs]
Compound 3.16 µM
  viability, T/C: 102% (2×) and 112% and 103%
Compound 10 µM
  viability, T/C: 78% [middle of 4 runs]
Curve of compound
  IC50: > 10 µM

## CCN1CCN(Cc2ccc(Nc3ncc(F)c(-c4cc(F)c5nc(C)n(C(C)C)c5c4)n3)nc2)CC1
Compound 0.00316 µM
  viability, T/C: 101% [middle of 4 runs]
Compound 0.01 µM
  viability, T/C: 105% (2×) and 103% and 99.8%
Compound 0.0316 µM
  viability, T/C: 103% [middle of 4 runs]
Compound 0.1 µM
  viability, T/C: 102% (2×) and 100% and 96.4%
Compound 0.316 µM
  viability, T/C: 96.2% [middle of 4 runs]
Compound 1 µM
  viability, T/C: 84.8% [middle of 4 runs]
Curve of compound
  IC50: > 1 µM

## C=CC(=O)N1CCN(c2nc(=O)n(-c3c(C)ccnc3C(C)C)c3nc(-c4c(O)cccc4F)c(F)cc23)C(C)C1 (stereo not given)
Compound 0.0316 µM
  viability, T/C: 119% and 104% (2×) and 102%
Compound 0.316 µM
  viability, T/C: 106% [middle of 4 runs]
Compound 1 µM
  viability, T/C: 109% [middle of 4 runs]
Compound 3.16 µM
  viability, T/C: 108% and 110% (2×) and 107%
Compound 10 µM
  viability, T/C: 104% and 105% (2×) and 99.7%
Curve of compound
  IC50: > 10 µM

## COc1c(OCCCN2CCOCC2)ccc2c3n(c(=NC(=O)c4cnc(N)nc4)nc12)CCN3
Compound 0.00316 µM
  viability, T/C: 101% [middle of 8 runs]
Compound 0.01 µM
  viability, T/C: 95.7% [middle of 8 runs]
Compound 0.0316 µM
  viability, T/C: 80.6% [middle of 8 runs]
Compound 0.1 µM
  viability, T/C: 67.6% [middle of 8 runs]
Compound 0.316 µM
  viability, T/C: 51% [middle of 8 runs]
Compound 1 µM
  viability, T/C: 39.6% [middle of 8 runs]
Compound alone, run of 05/09/2023
  IC50: 375 nM [middle of 8 runs]

## CC(C)NCC(C(=O)N1CCN(c2ncnc3c2C(C)CC3O)CC1)c1ccc(Cl)cc1 (stereo not given) + Cc1nc(NC(=O)N2CCCC2C(N)=O)sc1-c1ccnc(C(C)(C)C(F)(F)F)c1
[1]
  IC50: > 10 µM
[2]
  IC50: > 10 µM
[3]
  IC50: > 10 µM
[4]
  IC50: > 10 µM
[5]
  IC50: > 10 µM
[6]
  IC50: > 10 µM
[7]
  viability, T/C: 103%
[8]
  viability, T/C: 103%
[9]
  viability, T/C: 90.9%
[10]
  viability, T/C: 95.2%
[11]
  viability, T/C: 97.6%
[12]
  viability, T/C: 73.5%
[13]
  viability, T/C: 97.8%
[14]
  viability, T/C: 85.5%
[15]
  viability, T/C: 92.6%
[16]
  viability, T/C: 86.7%
[17]
  viability, T/C: 83.5%
[18]
  viability, T/C: 71.7%
[19]
  viability, T/C: 97.9%
[20]
  viability, T/C: 89.6%
[21]
  viability, T/C: 88.7%
[22]
  viability, T/C: 84%
[23]
  viability, T/C: 80.4%
[24]
  viability, T/C: 68.6%
[25]
  viability, T/C: 82.2%
[26]
  viability, T/C: 80.4%
[27]
  viability, T/C: 89.3%
[28]
  viability, T/C: 88.8%
[29]
  viability, T/C: 79.9%
[30]
  viability, T/C: 67.7%
[31]
  viability, T/C: 73.2%
[32]
  viability, T/C: 81.1%
[33]
  viability, T/C: 67.7%
[34]
  viability, T/C: 65%
[35]
  viability, T/C: 70%
[36]
  viability, T/C: 61%
[37]
  viability, T/C: 60.4%
[38]
  viability, T/C: 52.4%
[39]
  viability, T/C: 59%
[40]
  viability, T/C: 57.4%
[41]
  viability, T/C: 62.8%
[42]
  viability, T/C: 51.4%
